# Key:
# [1] = Test of melanin production suppression, using three-dimensional cultured skin model; type: cell-based, human; conditions: Homo sapiens, 264 h; Addition concentration 5 mmol/L; method as Example 6; relative to control (H2O) 100; read-out: Melanin amount (%)
# Procedure: (§1) A three-dimensional cultured skin model (MEL-300-A, manufactured by MatTek Corporation) composed of normal human epidermal melanocytes and epidermal keratinocytes was cultured, using the attached medium to which factors inducing melanin production were added. 25 µL of a pentaerythritol solution (1 or 5 mmol/L) was added onto the keratinous layer of the skin model. The skin model was cultured for 11 days exchanging the medium and the test substance solution every 2 to 3 days, and then the skin model was washed, and the cell survival rate was measured using Alamar Blue (manufactured by Invitrogen). In addition, the skin model was dissolved under heating in SOLVABLE (manufactured by Perkin Elmar), and the absorbance (405 nm) was measured and the amount of melanin was calculated relative to a standard determined by similarly dissolving melanin (manufactured by SIGMA) in SOLVABLE. The amount of melanin was determined relative to 100 (%) of the control (H2O addition).
# (§2) The test method is similar to that of Example 6.
# [2] = system: three-dimensional cultured skin model (MEL-300-A) composed of normal human epidermal melanocytes and epidermal keratinocytes; assay: Cell survival rate (Alamar Blue) in three-dimensional cultured skin model; type: cell-based
# Procedure: as §1, §2
# [3] = system: Normal human epidermal cells; assay: Test-1 of PGE2 production suppression (arachidonic acid added); type: cell-based; conditions: culture supernatant after one day, control 1711.7 ± 25.91
# Procedure: Normal human epidermal cells were seeded on a 24 well plate by 2 × 10^5 each, and cultured for 2 days on a MCDB153 medium. The medium was exchanged with a MCDB153 medium containing arachidonic acid (manufactured by Wako Pure Chemical Industries, Ltd.), which is a substrate of PGE2, and pentaerythritol (manufactured by JUNSEI CHEMICAL CO., LTD.) or the two acetal derivatives of pentaerythritol (the compounds of Examples 1 and 2), and the cells were further cultured for one day. As a control, purified water was added instead of pentaerythritol or the acetal derivative of pentaerythritol. After completion of the culture, the amount of PGE2 released in the cultured supernatant was quantified using a PGE2 measurement kit (manufactured by Cayman Chemical Company). In addition, in the same manner as the control, a control group to which purified water was added, but arachidonic acid was not added, was provided.
# [4] = system: Normal human epidermal cells; assay: Test-2 of PGE2 production suppression (UVB irradiation); type: cell-based; conditions: after 30 mJ/cm^2 UVB, culture supernatant after one day, control 670.1 ± 23.97
# Procedure: Normal human epidermal cells were seeded on a 24 well plate by 2 × 10^5 each, and cultured for two days on a MCDB153 medium. The medium was replaced with HEPES Buffer, and was irradiated with 30 mJ/cm^2 UVB using a UVB lamp (TOREX FL20S and E-30/DMR 20W manufactured by TOSHIBA MEDICAL SUPPLY CO., LTD.). The intensity of ultraviolet rays was measured with a digital type ultraviolet intensity meter (manufactured by Ultraviolet). After the UVB irradiation, the medium was exchanged with a MCDB153 medium containing pentaerythritol (manufactured by JUNSEI CHEMICAL CO., LTD.), and further cultured for one day. As a control, purified water was added instead of pentaerythritol. After completion of the culture, the amount of PGE2 released in the culture supernatant was quantified using a PGE2 measurement kit (manufactured by Cayman Chemical Company). In addition, in the same manner as the control, a control group containing purified water and not irradiated with UVB was provided.
# [5] = system: three-dimensional cultured skin model (MEL-300-A) composed of normal human epidermal melanocytes and epidermal keratinocytes; assay: Test of melanin production suppression, using three-dimensional cultured skin model; type: cell-based; conditions: 25 µL on keratinous layer, 11 days culture, relative to 100 (%) of control (H2O)
# Procedure: as §1, §2
SMILES,activity at 5000 µM [1],PGE2 amount (pg/mL) ± SD ([3]; sample concentration 0.5 µM),PGE2 amount (pg/mL) ± SD ([3]; sample concentration 5.0 µM),also measured
"OC[C@@H](O)[C@@H](O)CO [Erythritol, reference compound]",97%,–,–,–
"OC[C@@H](O)[C@@H](O)[C@H](O)[C@H](O)CO [Mannitol, reference compound]",96.3%,–,–,"cell toxicity ([2]; 5 mmol/L, Example 7, method as Example 6): not detected"
OCC(CO)(CO)CO [Pentaerythritol],–,789.2 ± 168.61 pg/mL,1151.3 ± 6.73 pg/mL,"cell toxicity ([2]; 1 or 5 mmol/L, any test addition concentration, 11 days culture): not detected; PGE2 amount (pg/mL) ± SD ([4]; sample concentration 0.05 µM): 565.5 ± 28.10 pg/mL; PGE2 amount (pg/mL) ± SD ([4]; sample concentration 0.5 µM): 522.8 ± 50.40 pg/mL; PGE2 amount (pg/mL) ± SD ([4]; sample concentration 5.0 µM): 512.3 ± 65.31 pg/mL; amount of melanin (%) ([5]; 1 mmol/L): 83.8%; amount of melanin (%) ([5]; 5 mmol/L): 76.7%"
CC1(C)OCC2(CO1)COC(C)(C)OC2 [diisopropylidene pentaerythritol],–,746.0 ± 28.70 pg/mL,1142.0 ± 19.94 pg/mL,–
CC1(C)OCC(CO)(CO)CO1 [monoisopropylidene pentaerythritol],–,824.7 ± 28.78 pg/mL,790.5 ± 11.64 pg/mL,–
